Experimental data reported in US8906896B2, “Platinum acridine anti-cancer compounds and methods thereof” (priority 2008, dated 2014).

What was measured:
NCI-H460 NSCLC cell line [1] = assay: Cytotoxicity (cell proliferation) assay, NCI-H460; assay type: cell-based
Protocol: Cytotoxicity Assay. Cytotoxicity studies were carried out according to a standard protocol (Guddneppanavar et al. 2006) using the Celltiter 96 Aqueous Non-Radioactive Cell Proliferation Assay kit (Promega, Madison, Wis.). […] IC50 values were calculated from non-linear curve fits using a sigmoidal dose-response equation in GraphPad Prism (GraphPad Software, La Jolla, Calif.).

NCI-H460 NSCLC cell line [2] = settings: typical values; cited from earlier work
[3] = tested on: H460 NSCLC tumors xenografted into nude mice; assay: H460 xenograft study in nude mice; assay type: in vivo
Protocol: (§1) Xenograft Study. H460 xenografts were established in nude athymic female mice via bilateral subcutaneous injections. Treatment began when the average tumor volume was approximately 100 mm^3. The tumor-bearing mice were randomized depending on tumor volume into three groups of five test animals each: one control group receiving vehicle only, one group treated at 0.1 mg/kg 5d/w×2 (A), and one group treated at 0.5 mg/kg q4d×3 (B). Animal weights and tumor volumes were measured and recorded for 17 days after the first dose was administered. Tumor volumes were determined using the formula:V (mm^3)=d^2×D/2, where d and D are the shortest and longest dimension of the tumor, respectively, and are reported as the sum of both tumors for each test animal. At the end of the study, all animals were euthanized and disposed of according to Standard Operating Procedures (SOPs). Statistical analysis of the growth curves was done using a non-linear polynomial random-coefficient model in SAS Proc Mixed (SAS Institute Inc., Cary, N.C.).
(§2) The antitumor activity of compound 14b was evaluated against H460 bilateral tumors implanted into athymic nude mice. […] Complex 14b was administered intraperitonealy (i.p.) according to the following dosing schedules: (A) 0.1 mg/kg, five days per week for two consecutive weeks (5d/w×2), and (B) 0.5 mg/kg, three doses given at 4-day intervals (q4d×3). The tumor volumes recorded in both treatment groups and in untreated control animals are plotted vs. days of treatment in FIG. 1. At the end of the study, the tumors measured 1834±160, 1798±309, and 1102±319 mm^3 (means±S.E.M.) for the control animals and animals treated according to schedules A and B, respectively.
(§3) Growth curves are shown for untreated control animals (open squares), and mice treated according to schedule A (filled triangles) and schedule B (filled circles). Measurement of tumor volumes began on day 0, and treatment began on day 4. Each data point represents the mean of 5 tumor volumes±S.E.M.

[4] = H460 xenograft study in nude mice; assay type: in vivo; settings: female, athymic nude, mouse, in vivo, ip, q4d×3, mice; dose B stated to be close to the MTD; read-out: maximum tolerated dose (MTD)
Protocol: as §1, §2, §3

| Compound | potency in H460 cells relative to the compounds of the invention (fold less potent) (NCI-H460 NSCLC cell line [1]) | IC50 in H460 cells (typical) (NCI-H460 NSCLC cell line [2]) | tolerated dose relative to cisplatin ([3]; administered i.p.) | effect on tumor growth ([3]; schedule A: 0.1 mg/kg i.p. 5d/w×2) | effect on tumor growth rate compared to control group ([3]; schedule B: 0.5 mg/kg i.p. q4d×3, P<0.01) | MTD at 17 days [4] |
| --- | --- | --- | --- | --- | --- | --- |
| N.N.[Cl][Pt][Cl] [Cisplatin, cis-diamminedichloroplatinum] | at least 20 fold | micromolar range |  |  |  |  |
| CC/C(=[N]\[Pt]([NH2])([NH2])[Cl])N(C)CCNc1c2ccccc2nc2ccccc12 [Compound 14b] |  |  | an order of magnitude lower than those commonly applied for cisplatin | no effect on tumor growth | slowed the tumor growth rate significantly | ~0.5 mg/kg |
